From ChEMBL document CHEMBL5233222, “Bridging free radical chemistry with drug discovery: A promising way for finding novel drugs efficiently” (Eur J Med Chem, 2020)

Test: Inhibition of AAPH-induced hemolysis of human erythrocytes
Format: functional, cell-based
Details: erythrocyte

SMILES	IC50
CC(C)=CCC[C@](C)(O[C@@H]1O[C@H](CO[C@@H]2O[C@H](CO)[C@@H](O)[C@H](O)[C@H]2O)[C@@H](O)[C@H](O)[C@H]1O)[C@H]1CC[C@]2(C)[C@@H]1[C@H](O)C[C@@H]1[C@@]3(C)CC[C@H](O[C@@H]4O[C@H](CO)[C@@H](O)[C@H](O)[C@H]4O[C@@H]4O[C@H](CO)[C@@H](O)[C@H](O)[C@H]4O)C(C)(C)[C@@H]3CC[C@]12C [GINSENOSIDE RB1]	3180 nM
CC(C)=CCC[C@](C)(O[C@@H]1O[C@H](CO[C@@H]2OC[C@@H](O)[C@H](O)[C@H]2O)[C@@H](O)[C@H](O)[C@H]1O)[C@H]1CC[C@]2(C)[C@@H]1[C@H](O)C[C@@H]1[C@@]3(C)CC[C@H](O[C@@H]4O[C@H](CO)[C@@H](O)[C@H](O)[C@H]4O[C@@H]4O[C@H](CO)[C@@H](O)[C@H](O)[C@H]4O)C(C)(C)[C@@H]3CC[C@]12C [GINSENOSIDE RB3]	2650 nM
